How the values were obtained:
Format in all cases: in vivo
Kochia (Kochia scoparia) [1] = experiment: Test A preemergence; details: Bassia scoparia, pre-emergence, 240 h, Preemergence; for pest or weed control at 31 g/ha: 31 g ai/ha, 0 to 100 scale where 0 is no effect and 100 is complete control, read-out: Kochia plant response rating; for pest or weed control at 125 g/ha: 125 g ai/ha, visual injury rating after approximately 10 d, read-out: Kochia plant response rating (0 to 100 scale, 0 is no effect, 100 is complete control)
Outline: (§1)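 Treatment is preemergence as a directed soil spray after planting, or postemergence at the one- to two-leaf stage, with test chemical in a non-phytotoxic solvent mixture plus surfactant. Plants stay in the greenhouse about 10 d before visual injury scoring on a 0 to 100 scale versus untreated controls.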

[2] = system: barnyardgrass (Echinochloa crus-galli); experiment: Test A preemergence; details: Echinochloa crus-galli, pre-emergence, 240 h, Preemergence; for pest or weed control at 125 g/ha: 125 g ai/ha, visual injury rating after approximately 10 d, read-out: Barnyardgrass plant response rating (0 to 100 scale, 0 is no effect, 100 is complete control); for pest or weed control at 31 g/ha: 31 g ai/ha, 0 to 100 scale (0 no effect, 100 complete control), read-out: Plant response rating, Barnyardgrass
Outline: as §1

[3] = system: giant foxtail (Setaria faberii); experiment: Test A preemergence; details: Setaria faberi, pre-emergence, 240 h, Preemergence; for pest or weed control at 125 g/ha: 125 g ai/ha, visual injury rating after approximately 10 d, read-out: Foxtail, Giant plant response rating (0 to 100 scale, 0 is no effect, 100 is complete control); for pest or weed control at 31 g/ha: 31 g ai/ha, 0 to 100 scale (0 no effect, 100 complete control), read-out: Plant response rating, Foxtail, Giant
Outline: as §1

[4] = system: pigweed (Amaranthus retroflexus); experiment: Test A preemergence; details: Amaranthus retroflexus, pre-emergence, 240 h, Preemergence; for pest or weed control at 31 g/ha: 31 g ai/ha, 0 to 100 scale where 0 is no effect and 100 is complete control, read-out: Pigweed plant response rating; for pest or weed control at 125 g/ha: 125 g ai/ha, visual injury rating after approximately 10 d, read-out: Pigweed plant response rating (0 to 100 scale, 0 is no effect, 100 is complete control)
[5] = system: ragweed (common ragweed, Ambrosia elatior); experiment: Test A preemergence; details: Ambrosia artemisiifolia, pre-emergence, 240 h, Preemergence; for pest or weed control at 31 g/ha: 31 g ai/ha, 0 to 100 scale where 0 is no effect and 100 is complete control, read-out: Ragweed plant response rating; for pest or weed control at 125 g/ha: 125 g ai/ha, visual injury rating after approximately 10 d, read-out: Ragweed plant response rating (0 to 100 scale, 0 is no effect, 100 is complete control)
Outline: as §1

[6] = system: ryegrass, Italian (Italian ryegrass, Lolium multiflorum); experiment: Test A preemergence; details: Lolium multiflorum, pre-emergence, 240 h, Preemergence; for pest or weed control at 31 g/ha: 31 g ai/ha, 0 to 100 scale where 0 is no effect and 100 is complete control, read-out: Ryegrass, Italian plant response rating; for pest or weed control at 125 g/ha: 125 g ai/ha, visual injury rating after approximately 10 d, read-out: Ryegrass, Italian plant response rating (0 to 100 scale, 0 is no effect, 100 is complete control)
Outline: as §1

[7] = system: Galium (catchweed bedstraw, Galium aparine); experiment: Test A postemergence; details: Galium, post-emergence, 240 h, Postemergence, read-out: Plant response rating, Galium; for pest or weed control at 125 g/ha: 125 g ai/ha, visual injury after approximately 10 d, 0 to 100 scale where 0 is no effect and 100 is complete control; for pest or weed control at 31 g/ha: 31 g ai/ha, visual injury after approx. 10 d, 0 to 100 scale, 0 no effect, 100 complete control
Outline: as §1

Kochia (Kochia scoparia) [8] = experiment: Test A postemergence; details: Bassia scoparia, post-emergence, 240 h, Postemergence, read-out: Plant response rating, Kochia; for pest or weed control at 125 g/ha: 125 g ai/ha, visual injury after approximately 10 d, 0 to 100 scale where 0 is no effect and 100 is complete control; for pest or weed control at 31 g/ha: 31 g ai/ha, visual injury after approx. 10 d, 0 to 100 scale, 0 no effect, 100 complete control
Outline: as §1

[9] = system: barnyardgrass (Echinochloa crus-galli); experiment: Test A postemergence; details: Echinochloa crus-galli, post-emergence, 240 h, Postemergence, read-out: Plant response rating, Barnyardgrass; for pest or weed control at 125 g/ha: 125 g ai/ha, visual injury after approximately 10 d, 0 to 100 scale where 0 is no effect and 100 is complete control; for pest or weed control at 31 g/ha: 31 g ai/ha, visual injury after approx. 10 d, 0 to 100 scale, 0 no effect, 100 complete control
Outline: as §1

[10] = system: blackgrass (Alopecurus myosuroides); experiment: Test A postemergence; details: Alopecurus myosuroides, post-emergence, 240 h, Postemergence, read-out: Plant response rating, Blackgrass; for pest or weed control at 125 g/ha: 125 g ai/ha, visual injury after approximately 10 d, 0 to 100 scale where 0 is no effect and 100 is complete control; for pest or weed control at 31 g/ha: 31 g ai/ha, visual injury after approx. 10 d, 0 to 100 scale, 0 no effect, 100 complete control
Outline: as §1

corn (Zea mays) = experiment: Test A postemergence; details: Zea mays, post-emergence, 240 h, Postemergence; for Corn plant response rating (crop injury, 0 = no effect, 100 = complete kill) at 125 g/ha: 125 g ai/ha, visual injury after approximately 10 d, 0 to 100 scale where 0 is no effect and 100 is complete control; for Corn plant response rating (crop injury, 0 = no effect, 100 = complete kill) at 31 g/ha: 31 g ai/ha, visual injury after approx. 10 d, 0 to 100 scale, 100 complete control
Outline: as §1

[11] = system: giant foxtail (Setaria faberii); experiment: Test A postemergence; details: Setaria faberi, post-emergence, 240 h, Postemergence, read-out: Plant response rating, Foxtail, Giant; for pest or weed control at 125 g/ha: 125 g ai/ha, visual injury after approximately 10 d, 0 to 100 scale where 0 is no effect and 100 is complete control; for pest or weed control at 31 g/ha: 31 g ai/ha, visual injury after approx. 10 d, 0 to 100 scale, 0 no effect, 100 complete control
Outline: as §1

[12] = system: pigweed (Amaranthus retroflexus); experiment: Test A postemergence; details: Amaranthus retroflexus, post-emergence, 240 h, Postemergence, read-out: Plant response rating, Pigweed; for pest or weed control at 125 g/ha: 125 g ai/ha, visual injury after approximately 10 d, 0 to 100 scale where 0 is no effect and 100 is complete control; for pest or weed control at 31 g/ha: 31 g ai/ha, visual injury after approx. 10 d, 0 to 100 scale, 0 no effect, 100 complete control
Outline: as §1

[13] = system: ragweed (common ragweed, Ambrosia elatior); experiment: Test A postemergence; details: Ambrosia artemisiifolia, post-emergence, 240 h, Postemergence, read-out: Plant response rating, Ragweed; for pest or weed control at 125 g/ha: 125 g ai/ha, visual injury after approximately 10 d, 0 to 100 scale where 0 is no effect and 100 is complete control; for pest or weed control at 31 g/ha: 31 g ai/ha, visual injury after approx. 10 d, 0 to 100 scale, 0 no effect, 100 complete control
Outline: as §1

[14] = system: ryegrass, Italian (Italian ryegrass, Lolium multiflorum); experiment: Test A postemergence; details: Lolium multiflorum, post-emergence, 240 h, Postemergence, read-out: Plant response rating, Ryegrass, Italian; for pest or weed control at 125 g/ha: 125 g ai/ha, visual injury after approximately 10 d, 0 to 100 scale where 0 is no effect and 100 is complete control; for pest or weed control at 31 g/ha: 31 g ai/ha, visual injury after approx. 10 d, 0 to 100 scale, 0 no effect, 100 complete control
Outline: as §1

[15] = system: wheat (Triticum aestivum); experiment: Test A postemergence; details: Triticum aestivum, post-emergence, 240 h, Postemergence, read-out: Plant response rating, Wheat; for plant injury at 125 g/ha: 125 g ai/ha, visual injury after approximately 10 d, 0 to 100 scale where 0 is no effect and 100 is complete control; for plant injury at 31 g/ha: 31 g ai/ha, visual injury after approx. 10 d, 0 to 100 scale, 0 no effect, 100 complete control
Outline: as §1

[16] = system: barnyardgrass (Echinochloa crus-galli); experiment: Test B flooded paddy test; details: Echinochloa crus-galli, 250 g ai/ha, Flood; 0 to 100 scale where 0 is no effect and 100 is complete control; read-out: Barnyardgrass plant response rating
Outline: (§2)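 Response scored visually against untreated controls, 0 = no effect and 100 = complete control, 13–15 d after treatment in the greenhouse. Compounds added to paddy water held 3 cm above soil surface. Treatment given at 2-leaf stage.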

[17] = system: ducksalad (Heteranthera limosa); experiment: Test B flooded paddy test; details: Heteranthera limosa, 250 g ai/ha, Flood; 0 to 100 scale where 0 is no effect and 100 is complete control; read-out: Ducksalad plant response rating
Outline: as §2

rice (Oryra sativa) = experiment: Test B flooded paddy test; details: Oryza sativa, 250 g ai/ha, Flood; 0 to 100 scale where 0 is no effect and 100 is complete control; read-out: Rice plant response rating
Outline: as §2

[18] = system: sedge, umbrella (small-flower umbrella sedge, Cyperus difformis); experiment: Test B flooded paddy test; details: Cyperus difformis, 250 g ai/ha, Flood; 0 to 100 scale where 0 is no effect and 100 is complete control; read-out: Sedge, Umbrella plant response rating
Outline: as §2

| SMILES | pest or weed control at 31 g/ha (Kochia (Kochia scoparia) [1]) [%] | pest or weed control at 125 g/ha (Kochia (Kochia scoparia) [1]) [%] | pest or weed control at 125 g/ha [2] [%] | pest or weed control at 31 g/ha [2] [%] | pest or weed control at 125 g/ha [3] [%] | pest or weed control at 31 g/ha [3] [%] | pest or weed control at 31 g/ha [4] [%] | pest or weed control at 125 g/ha [4] [%] | pest or weed control at 31 g/ha [5] [%] | pest or weed control at 125 g/ha [5] [%] | pest or weed control at 31 g/ha [6] [%] | pest or weed control at 125 g/ha [6] [%] | pest or weed control at 125 g/ha [7] [%] | pest or weed control at 31 g/ha [7] [%] | pest or weed control at 125 g/ha (Kochia (Kochia scoparia) [8]) [%] | pest or weed control at 31 g/ha (Kochia (Kochia scoparia) [8]) [%] | pest or weed control at 125 g/ha [9] [%] | pest or weed control at 31 g/ha [9] [%] | pest or weed control at 125 g/ha [10] [%] | pest or weed control at 31 g/ha [10] [%] | other results |
| --- | --- | --- | --- | --- | --- | --- | --- | --- | --- | --- | --- | --- | --- | --- | --- | --- | --- | --- | --- | --- | --- |
| O=C(Nc1cccc(F)c1F)[C@H]1C(=O)N(C2CC2)CC[C@@H]1c1ccc(F)cc1 [Compound 1003] | 0 | 0 | 0 | 0 | 60 | 0 | 0 | 0 | 0 | 0 | 0 | 0 | 0 | 0 | 0 | 0 | 0 | 0 | 0 | 0 | Corn plant response rating (crop injury, 0 = no effect, 100 = complete kill) at 125 g/ha (corn (Zea mays)): 0%; Corn plant response rating (crop injury, 0 = no effect, 100 = complete kill) at 31 g/ha (corn (Zea mays)): 0%; pest or weed control at 125 g/ha [11]: 0%; pest or weed control at 31 g/ha [11]: 0%; pest or weed control at 125 g/ha [12]: 0%; pest or weed control at 31 g/ha [12]: 0%; pest or weed control at 125 g/ha [13]: 0%; pest or weed control at 31 g/ha [13]: 0%; pest or weed control at 125 g/ha [14]: 0%; pest or weed control at 31 g/ha [14]: 0%; plant injury at 125 g/ha [15]: 0%; plant injury at 31 g/ha [15]: 0%; pest or weed control at 250 g/ha [16]: 0%; pest or weed control at 250 g/ha [17]: 0%; pest or weed control at 250 g/ha (rice (Oryra sativa)): 0%; pest or weed control at 250 g/ha [18]: 0% |
| CSc1ccccc1NC(=O)[C@H]1C(=O)N(C2CC2)CC[C@@H]1c1ccc(F)cc1 [Compound 1005] | 0 | 0 | 0 | 0 | 0 | 0 | 0 | 0 | 0 | 0 | 0 | 0 | 0 | 0 | 0 | 0 | 0 | 0 | 0 | 0 | Corn plant response rating (crop injury, 0 = no effect, 100 = complete kill) at 125 g/ha (corn (Zea mays)): 0%; Corn plant response rating (crop injury, 0 = no effect, 100 = complete kill) at 31 g/ha (corn (Zea mays)): 0%; pest or weed control at 125 g/ha [11]: 0%; pest or weed control at 31 g/ha [11]: 0%; pest or weed control at 125 g/ha [12]: 0%; pest or weed control at 31 g/ha [12]: 0%; pest or weed control at 125 g/ha [13]: 0%; pest or weed control at 31 g/ha [13]: 0%; pest or weed control at 125 g/ha [14]: 0%; pest or weed control at 31 g/ha [14]: 0%; plant injury at 125 g/ha [15]: 0%; plant injury at 31 g/ha [15]: 0%; pest or weed control at 250 g/ha [16]: 0%; pest or weed control at 250 g/ha [17]: 0%; pest or weed control at 250 g/ha (rice (Oryra sativa)): 0%; pest or weed control at 250 g/ha [18]: 0% |

— US12077503B2, “Substituted cyclic amides and their use as herbicides” (FMC CORPORATION, priority 2015, dated 2024)
